Key:
[1] = tested on: PLD activity in Calu-1 cells; experiment: In vivo PLD activity in Calu-1 lung cancer cells; assay type: cell-based, human; details: honokiol 20 μM, 4 hr
Protocol: In FIG. 17A, T24 and Calu1 cells (obtained from the American Type Culture Collection) were plated in DMEM containing 10% serum for 48 hr and then shifted to either 10% serum or 0.5% serum overnight as indicated. Honokiol (20 μM) or control ethanol was then added for 4 hr as indicated. [^3H]-Myristate was added with the honokiol. After 4 hr, BtOH (0.7%) was added for 20 min, at which time the cells were harvested and the level of phosphatidyl-BtOH (P-Bt) was determined as in FIGS. 12A-C. The experiments shown are representative of at least two independent experiments. In FIG. 17B, T24 and Calu-1 cells were plated in DMEM with 10% serum for 48 hr then changed to DMEM containing either 10% or 0.5% serum overnight as indicated. […]
For in vivo PLD activity, cells were plated in 60 mm culture dishes in DMEM with 10% serum at a density that would allow them to grow to about 80% confluence after 2 days, then cells were shifted to DMEM containing 0.5% or 10% serum as indicated in the figure legends overnight. […] Briefly, PLD activity was measured by the release of [methyl-^3H] choline from [choline-methyl-^3H]dipalmitoyl-phosphatidylcholine. […] Free [methyl-^3H] choline was separated from precipitated lipids and proteins by centrifugation and was analyzed by liquid scintillation counting. […]

[2] = tested on: MDA-MB-231 cells; experiment: Cell viability (trypan blue) and PARP cleavage in MDA-MB-231 cells; assay type: cell-based, human; details: honokiol 20 μM
Protocol: MDA-MB-231 cells were plated in DMEM with 10% serum for 48 hr then changed to DMEM with either 10% or 0.5% serum overnight as indicated. Honokiol (20 μM) or control ethanol was then added either at the time of changing media (24 hr time point), or 4 hr prior to harvesting (4 hr time point) as indicated. The cells were then examined for cell viability and PARP cleavage as described previously (Chen et al., “Alternative Phospholipase D/mTOR Survival Signal in Human Breast Cancer Cells,” Oncogene 24:672-9 (2005), which is hereby incorporated by reference in its entirety). The Western blot is representative of at least three independent experiments. The error bars for cell viability represent the standard deviation for triplicate samples from a representative experiment repeated three times.
Cell viability was determined by trypan blue exclusion. After various treatments, cells were harvested, washed, and treated with trypan blue at a concentration of 0.4% w/v. After 10 min, trypan blue uptake (dead cells) was determined by counting on a hemocytometer. Apoptosis was evaluated by examination of cleavage of the caspase 3 substrate PARP as described previously (Chen et al., “Alternative Phospholipase D/mTOR Survival Signal in Human Breast Cancer Cells,” Oncogene 24:672-9 (2005), which is hereby incorporated by reference in its entirety).
The effect of honokiol on cell viability and cleavage of the caspase 3 substrate poly-(ADP-ribose) polymerase (“PARP”)—an indicator of apoptotic cell death—was examined in the MDA-MB-231 and 786-0 cells. The effect of honokiol on cell viability and PARP cleavage in 0.5% serum was examined after 4 hr and 24 hr honokiol treatment and in 10% serum after 24 hr honokiol treatment in the MDA-MB-231 cells. […] Importantly, the cells were still viable after 4 hr of honokiol treatment—the time point used in FIGS. 12 and 13 where the effect of honokiol upon PLD activity and on S6K and 4E-BP1 phosphorylation was examined.

C=CCc1ccc(O)c(-c2ccc(O)c(CC=C)c2)c1 [honokiol, Honokiol]
stress-induced PLD activity ([1]; 0.5% serum): suppressed
PLD activity observed in the presence of serum ([1]; 10% serum): little effect
cell viability ([2]; 4 hr, 0.5% serum): still viable
PARP cleavage ([2]; 24 hr, 0.5% serum): increased
cell viability ([2]; 24 hr, 0.5% serum): reduced
PARP cleavage increased ([2]; 24 hr, 10% serum): not
cell viability reduced ([2]; 24 hr, 10% serum): not
